Test system: ovariectomized pregnant rats
Assay: pregnancy maintenance test in rats
Assay type: in vivo
Details: subcutaneous once daily from day 8 of pregnancy, with estrone 5 μg/kg/day
Description: Executing the Pregnancy Maintenance Test in Rats:
In pregnant rats, removal of the corpora lutea or castration induces abortion. By exogenous supplying of progestins (gestagens) in combination with a suitable dose of estrogen, pregnancy can be maintained. The pregnancy maintenance test in ovariectomized rats serves to determine peripheral gestagenic activity of a compound.
Rats are paired up during the proestrus overnight. Mating is monitored on the morning of the following day by vaginal smear inspection. The presence of sperm is considered in this case as day 1 of the beginning of pregnancy. On day 8 of pregnancy, the animals are ovariectomized under ether anesthesia. […]
At the end of the test (day 15 or day 21), the animals are sacrificed under CO2 atmosphere, and live fetuses (fetuses with beating hearts) and implantation sites (early resorptions and dead fetuses including autolysis and atrophic placentas) in both uterine horns are counted. […] In uteri without fetuses or implantation sites, the number of nidation sites is determined by staining with 10% ammonium sulfide solution. The pregnancy maintenance rate is calculated as the quotient of the number of living fetuses and the total number of nidation sites (both resorbed and dead fetuses as well as nidation sites). […]

SMILES	pregnancy-maintaining dose (ED50)
CCC12CCC3C4CCC(=O)C=C4C4CC4C3C1C1CC1C21CCC(=O)O1 (stereo not drawn) [compound 3a, 18-Methyl-6α,7α-15β,16β-dimethylene-3-oxo-19-nor-17-pregn-4-ene-21,17-carbolactone]	120 µg/kg/day
C[C@]12CCC(=O)C=C1[C@@H]1C[C@@H]1[C@H]1[C@@H]3[C@@H]4C[C@@H]4[C@@]4(CCC(=O)O4)[C@@]3(C)CC[C@@H]12 [drospirenone, 6β,7β-15β,16β-dimethylene-3-oxo-17-pregn-4-ene-21,17β-carbolactone]	3500 µg/kg/day

— patent US20090029953A1, “18-METHYL-19-NOR-17-PREGN-4-ENE-21,17-CARBOLACTONES, AS WELL AS PHARMACEUTICAL PREPARATIONS THAT CONTAIN THE LATTER” (priority 2004, published 2009)
